Laboratory results taken from patent US6369042B1, “Antioxidative vitamin B6 analogs” (priority 1999, dated 2002).

Tested on: Rhinovirus infection
Experiment: Treatment of a rhinovirus infection (common cold) in a patient
Type: in vivo, human
Conditions: 50 mg orally in a water solution, after 15 minutes
Method: A patient with a common katarrhalic infection (common cold) was treated orally with 50 mg of (2RS,4R)-2-[3-Hydroxy-5-(hydroxymethyl)-2-methyl-4-pyridinyl]-4-thiazolidine carboxylic acid in a water solution. After 15 minutes the disease symptoms disappeared.

In the case of Cc1ncc(CO)c(C2N[C@H](C(=O)O)CS2)c1O (mixture of isomers) [(2RS,4R)-2-[3-Hydroxy-5-(hydroxymethyl)-2-methyl-4-pyridinyl]-4-thiazolidine carboxylic acid], the “disease symptoms of common katarrhalic infection (common cold)” value is reported as “disappeared”.
